In patent US20120121540A1 (priority 2007, published 2012):

Assay: HCV replicon assay (luciferase reporter, ET cell line)
Type: cell-based
Settings: Hepatitis C virus, HCV replicon luciferase activity in ET cells
In short: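 EC50 and, via WST-1 cytotoxicity, TC50 were fitted with a Hill-coefficient equation to % inhibition across 10 two-fold dilutions. Compounds at 0.1 nM-[…] with 0.5% DMSO were applied 24 h post-seeding to replicon-bearing ET cells (luc-ubi-neo/NS3-5B, adaptive mutations). Firefly luciferase signal was measured after 48-72 h.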

| SMILES | inhibition at 10 µM [%] |
| --- | --- |
| CC(C)(C)OC(=O)NC1CN(C(=O)c2nc3c(C(F)(F)F)cc(-c4ccoc4)cn3c2Cl)C1 [Compound 489, [1-(3-Chloro-6-furan-3-yl-8-trifluoromethyl-imidazo[1,2-a]pyridine-2-carbonyl)-azetidin-3-yl]-carbamic Acid Tert-butyl Ester] | 33 |
| CS(=O)(=O)NC1CN(C(=O)c2nc3c(C(F)(F)F)cc(-c4ccoc4)cn3c2Cl)C1 [Compound 491, N-[1-(3-Chloro-6-furan-3-yl-8-trifluoromethyl-imidazo[1,2-a]pyridine-2-carbonyl)-azetidin-3-yl]-methanesulfonamide] | 92.4 |
| O=C(c1nc2c(C(F)(F)F)cc(-c3ccoc3)cn2c1Cl)N1CC(NS(=O)(=O)c2ccccc2)C1 [Compound 492, N-[1-(3-Chloro-6-furan-3-yl-8-trifluoromethyl-imidazo[1,2-a]pyridine-2-carbonyl)-azetidin-3-yl]-benzenesulfonamide] | 97.4 |
| O=C(c1nc2c(C(F)(F)F)cc(-c3ccoc3)cn2c1Cl)N1CC(NS(=O)(=O)Cc2ccccc2)C1 [Compound 493, N-[1-(3-Chloro-6-furan-3-yl-8-trifluoromethyl-imidazo[1,2-a]pyridine-2-carbonyl)-azetidin-3-yl]-C-phenyl-methanesulfonamide] | 91.4 |
| O=C(c1nc2c(C(F)(F)F)cc(-c3ccoc3)cn2c1Cl)N1CC(NS(=O)(=O)c2ccccc2F)C1 [Compound 494, N-[1-(3-Chloro-6-furan-3-yl-8-trifluoromethyl-imidazo[1,2-a]pyridine-2-carbonyl)-azetidin-3-yl]-2-fluoro-benzenesulfonamide] | 88.5 |
| O=C(c1nc2c(C(F)(F)F)cc(-c3ccoc3)cn2c1Cl)N1CC(NS(=O)(=O)c2cccc(F)c2)C1 [Compound 495, N-[1-(3-Chloro-6-furan-3-yl-8-trifluoromethyl-imidazo[1,2-a]pyridine-2-carbonyl)-azetidin-3-yl]-3-fluoro-benzenesulfonamide] | 94.2 |
| O=C(c1nc2c(C(F)(F)F)cc(-c3ccoc3)cn2c1Cl)N1CC(NS(=O)(=O)c2ccc(F)cc2)C1 [Compound 496, N-[1-(3-Chloro-6-furan-3-yl-8-trifluoromethyl-imidazo[1,2-a]pyridine-2-carbonyl)-azetidin-3-yl]-4-fluoro-benzenesulfonamide] | 94.3 |
| CC(C)S(=O)(=O)NC1CN(C(=O)c2nc3c(C(F)(F)F)cc(-c4ccoc4)cn3c2Cl)C1 [Compound 497, Propane-2-sulfonic acid [1-(3-chloro-6-furan-3-yl-8-trifluoromethyl-imidazo[1,2-a]pyridine-2-carbonyl)-azetidin-3-yl]-amide] | 97.8 |
| O=C(c1nc2c(C(F)(F)F)cc(-c3ccoc3)cn2c1Cl)N1CC(NS(=O)(=O)C2CC2)C1 [Compound 498, Cyclopropanesulfonic Acid[1-(3-chloro-6-furan-3-yl-8-trifluoromethyl-imidazo[1,2-a]pyridine-2-carbonyl)-azetidin-3-yl]-amide] | 95 |
| O=C(c1nc2c(C(F)(F)F)cc(-c3ccoc3)cn2c1Cl)N1CC(NS(=O)(=O)c2cccs2)C1 [Compound 499, Thiophene-2-sulfonic acid [1-(3-chloro-6-furan-3-yl-8-trifluoromethyl-imidazo[1,2-a]pyridine-2-carbonyl)-azetidin-3-yl]-amide] | 93.4 |
| CCS(=O)(=O)NC1CN(C(=O)c2nc3c(C(F)(F)F)cc(-c4ccoc4)cn3c2Cl)C1 [Compound 500, Ethanesulfonic Acid[1-(3-chloro-6-furan-3-yl-8-trifluoromethyl-imidazo[1,2-a]pyridine-2-carbonyl)-azetidin-3-yl]-amide] | 98 |
| CN(C)S(=O)(=O)NC1CN(C(=O)c2nc3c(C(F)(F)F)cc(-c4ccoc4)cn3c2Cl)C1 [Compound 504] | 98.9 |
